Measurements taken from the METLIN SMRT retention time set (Domingo-Almenara et al. 2019).

Assay: gradient 5% acetonitrile 3 min, to 50% in 2 min, to 85% in 15 min, held 3 min, 100 µL/min
Details: column: Zorbax Extend-C18 2.1 x 50 mm; eluents: water / acetonitrile, 0.1% formic acid
How it was run: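 Retention times come from adduct peaks that were picked computationally and then checked by hand. The standards, pure and pooled in mixtures of ~100 molecules, were run on a Zorbax Extend-C18 column (2.1 × 50 mm, 1.8 μm) at 100 μL/min with water and acetonitrile, each with 0.1% formic acid. Detection was by quadrupole time-of-flight mass spectrometry in positive and negative ionization mode, with a dead volume of 40 μL and a dwell volume of 900 μL.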

| SMILES | RP-LC retention time [s] |
| --- | --- |
| COC(=O)c1cc(OCC(=O)Nc2ccc(OC)c(OC)c2)c2cc(F)ccc2n1 | 756 |
| COc1ccc(-c2nnc(-c3cccc([N+](=O)[O-])c3)o2)cc1 | 898 |
| Cc1oc(C2CCN(C(=O)Nc3ccc(Cl)cc3F)CC2)nc1C(=O)N(C)C | 714 |
| NC(=O)c1nc(-c2ccccc2F)n2c1CCCCC2 | 722 |
| O=S(=O)(NCCN1CCN(c2ccc(Cl)cc2)CC1)c1ccc2c(c1)OCCO2 | 620 |
| Cc1ccc(S(=O)(=O)Cc2cccc(-c3nc(-c4ccc5c(c4)oc(=O)n5C)no3)c2)cc1 | 1030 |
| Cc1ccc(-c2nc(-c3ccc4nnc(C)n4c3)no2)cc1C | 1130 |
| Cn1nc(C(=O)N2CCCC(C(=O)Nc3ccccc3)C2)c2c1CCN(C(=O)CCc1ccccc1)C2 (centres undefined) | 800 |
| Cc1cc(C)c(C)c(S(=O)(=O)N2CC(=O)N(CC3CC3)CC23CCCC3)c1C | 1170 |
| CCn1cc(S(=O)(=O)N2CCC(N3CC4(CCCCC4)C3c3ccccc3)CC2)cn1 (centres undefined) | 660 |
| Cn1cnc2c(NCc3ccccc3)nc(NCCO)nc21 | 657 |
| CCOC(=O)c1nc2ccccc2nc1N1CCN(c2ccccn2)CC1 | 666 |
| CCCn1c(=O)c(N2CCC(NC(=O)NC3CCCCC3)CC2)nc2ccccc21 | 953 |
| COc1ccc(OC)c(S(=O)(=O)Cc2nc(-c3ccccc3C)no2)c1 | 990 |
| Cc1cc([N+](=O)[O-])ccc1NC(=O)C1COc2ccccc2O1 (centres undefined) | 920 |
| CC(C)NC(=O)N1CCCC(c2nc(C3CCOCC3)no2)C1 (centres undefined) | 661 |
| COc1ccc(-c2nnc(Cc3nc(-c4ccc(OC)c(F)c4)no3)o2)cc1 | 1040 |
| Cc1cc(N2CCN(C)CC2)nc2ccc(NC(=S)NCc3ccc(F)cc3)cc12 | 599 |
| O=C(Nc1nc(-c2ccccc2)cs1)c1ccc(F)cc1 | 995 |
| Cc1nc2c(C(=O)NCCN(C)C)cnn2c(C)c1Cc1ccccc1Cl | 674 |
| CCNc1nc(NC(C)C)nc(-n2cnc(SC)n2)n1 | 897 |
| O=C(O)c1ccc(CCCc2ccc(OCCc3ccc(F)cc3)cc2)o1 | 1090 |
| Cc1cccc(CN2N=C(C(=O)N3CCCCC3)S(=O)(=O)c3ccccc32)c1 | 1010 |

| SMILES | RP-LC retention time [s] |
| --- | --- |
| Cc1cc(C)c2nc(C)cc(C(=O)NCc3ccc(C)o3)c2c1 | 735 |
| CCN(C(=O)Cn1c(C(C)C)nc2c(c1=O)CN(Cc1ccccc1)CC2)c1ccccc1 | 757 |
| COc1ccccc1CCC(=O)N1C[C@@H]2C[C@H](NC(=O)c3ccccc3)[C@H]1C2 | 816 |
| O=S(=O)(CCCOc1ccc(F)cc1)NCC1CCCO1 (centres undefined) | 763 |
| CC(C)(C)c1ccc(S(=O)(=O)N2CCc3nc[nH]c3C2)cc1 | 683 |
| O=S(=O)(Cc1ccc(F)cc1)NCC1(c2ccccc2)CCOCC1 | 818 |
| CCN(C(=O)C1CCN(C(=O)c2ccc(F)cc2)CC1)C1CCCCC1 | 885 |
| CCC1Oc2ccc(S(=O)(=O)N3CCC(C(=O)Nc4ccc(F)cc4C)CC3)cc2NC1=O (centres undefined) | 922 |
| Cc1ccc(N2CCn3c2nc2c3c(=O)n(CC(=O)O)c(=O)n2C)cc1 | 730 |
| O=C1CC(C(=O)N2CCN(c3ccccc3)CC2)CN1CCc1c[nH]c2ccc(F)cc12 (centres undefined) | 819 |
| CCCCN1CCN(C(=O)C2c3ccccc3CCN2C(C)=O)CC1 (centres undefined) | 585 |
| O=C(NCCNc1cc(-n2cccn2)ncn1)c1c[nH]c2ccccc12 | 646 |
| COc1ccc(CCNS(=O)(=O)c2cccc3cccnc23)cc1OC | 745 |
| COc1ccccc1-n1ccn(Cc2nc(-c3ccccc3C)no2)c(=O)c1=O | 850 |
| O=C(CSc1nc(N2CCCCC2)nc2ccccc12)Nc1cccc(Br)c1 | 812 |
| O=C(Nc1ccccc1)N1CCC(N2CC(OCC3CC3)C23CCOCC3)CC1 (centres undefined) | 635 |
| O=C(c1ccncc1)N1CCCCC1c1nc(-c2ccc(F)cc2)no1 (centres undefined) | 673 |
| O=C(NCCc1cccs1)C1CCN(c2cc(N3CCOCC3)ncn2)CC1 | 607 |
| CCn1nc(C)c(CCNC(=O)c2cc3c(=O)n(Cc4cccnc4)ccc3nc2C)c1C | 563 |
| CCCS(=O)(=O)c1nc2ccc(NS(=O)(=O)c3c(C)cc(C)cc3C)cc2s1 | 1030 |
| COc1ccc(-c2cc(C(=O)Nc3ccccc3)nn2C2CCS(=O)(=O)C2)cc1 (centres undefined) | 911 |
| CCn1ccc(C(=O)NC(C(=O)N2CCCc3ccccc32)c2ccccc2)n1 (centres undefined) | 967 |
| COC(=O)c1c(NCC(C)O)c2cccc(Cl)c2[nH]c1=O (centres undefined) | 610 |

| SMILES | RP-LC retention time [s] |
| --- | --- |
| O=C(O)c1cnc(N2CCOCC2)nc1-c1cccc(Cl)c1 | 770 |
| COc1ccc(-c2cc3c(=O)n(Cc4nc(-c5ccccc5OC)oc4C)ccn3n2)cc1OC | 990 |
| CCNC(=O)c1c(-c2cccnc2)noc1C | 583 |
| Cc1[nH]c(C(=O)N2CCCC(C(=O)NCCN3CCN(C)CC3)C2)c(C)c1C(=O)OC(C)C (centres undefined) | 598 |
| O=S(=O)(Cc1nc(-c2ccc(Br)cc2)no1)c1ccccc1 | 1040 |
| CCCNC(=O)C1CCCN(c2nc3ncn(CC(=O)Nc4cccc(Cl)c4)c(=O)c3s2)C1 (centres undefined) | 731 |
| CCOc1ccc(-c2csc3c(=O)n(Cc4cccnc4)cnc23)cc1OCC | 699 |
| O=C(NCc1ccco1)c1ccccc1-c1nc(-c2ccccc2)no1 | 888 |
| O=C(NCC1CCCO1)c1cn(-c2ccc(S(=O)(=O)N3CCCC3)cn2)cn1 (centres undefined) | 705 |
| COc1ccc(-n2ncc3c(=O)n(Cc4nc(-c5cc(OC)c(OC)c(OC)c5)no4)cnc32)cc1 | 927 |
| COc1ccc(NC(=O)c2cnc3c(c2)c(=O)n(C)c(=O)n3-c2ccc(C)cc2)cc1F | 849 |
| CC(=O)Nc1cccc(N2CC(C(=O)Nc3ccc(Br)c(C)c3)CC2=O)c1 (centres undefined) | 703 |
| CCCn1ccc2sc(C)c(C(=O)NCCOC)c2c1=O | 652 |
| COc1ccc2cccc(CCNC(C)=O)c2c1 | 696 |
| CC(/C=C/C(=O)NO)=C\C(C)C(=O)c1ccc(N(C)C)cc1 (centres undefined) | 723 |
| O=C(c1ccccc1Cl)N1CCC(Cc2nnc(-c3ccccc3)o2)CC1 | 864 |
| COc1c(Sc2ccc([N+](=O)[O-])cc2)c(C)nn1-c1ccccc1 | 1130 |
| CC(C)C(=O)N1CCc2cc(-c3ccc(C(=O)NCCCN4CCN(C)CC4)cc3)ccc21 | 607 |
| O=C(CCC(=O)N1CC2CCCN2c2ccccc21)NCCCN1CCCC1 (centres undefined) | 627 |
| Cc1ccccc1-c1nocc1CCC(=O)O | 651 |
| COc1ccc(C2Cn3cnc(C(=O)N4CCC(C(=O)NC5CCCCCC5)CC4)c3CO2)cc1 (centres undefined) | 797 |
| Cc1cc(C(=O)Nc2ccccc2I)n(-c2ccccc2)n1 | 974 |
| CCCOc1nc2ccccc2nc1N1CCCC(C(=O)Nc2ccc(NC(C)=O)cc2)C1 (centres undefined) | 968 |

| SMILES | RP-LC retention time [s] |
| --- | --- |
| O=C(Cn1cnc2nc3c(cc2c1=O)CCCC3)NC1CCCCCC1 | 662 |
| CCC(=O)N(C)CCc1noc(-c2ccc(C(=O)NCCN(C)C)cc2)n1 | 579 |
| O=C(CN1c2ccc(F)cc2-c2ccccc2S1(=O)=O)N1CCCCC1 | 915 |
| Cc1cccc(-c2nnc(C)c(N3CCCCC3C)n2)c1 (centres undefined) | 765 |
| COc1ccccc1N1CCN(c2nc3ccc(C)cc3cc2-c2noc(C)n2)CC1 | 732 |
| Cc1ccc(NC(=O)C2CCCN2S(=O)(=O)c2cc3c(cc2C)NC(=O)CO3)c(C)c1 (centres undefined) | 817 |
| Cc1noc(C)c1CCNC(=O)CN1C(=O)C2CCCCN2c2ccc(S(=O)(=O)N(C)C)cc21 (centres undefined) | 796 |
| CCOC(=O)c1cnc2nc(C)ccc2c1Nc1cccc(Cl)c1F | 764 |
| Cc1cccc(NS(=O)(=O)c2ccc(-c3c(C)noc3C)cc2)c1 | 881 |
| COc1ccc2c(c1)C1(CCN(S(=O)(=O)c3cccc(F)c3)C1)C(=O)N2C (centres undefined) | 874 |
| CCOc1ccc(-n2c(N3CCC(C)CC3)nc3cc(C(=O)OC)ccc3c2=O)cc1 | 1300 |
| CCCNC(=O)Cc1c(C)n(C)c2nc(-c3ccccc3)nn2c1=O | 660 |
| O=C(NCc1ccccc1C(F)(F)F)C1CCN(c2cncnc2N2CCCC2)CC1 | 695 |
| COc1cc(NC(=O)N2CCC(OC3CCN(S(C)(=O)=O)CC3)CC2)cc(OC)c1 | 704 |
| O=C(NCC1CCN(Cc2cccs2)CC1)C1(c2ccccc2)CCOCC1 | 578 |
| Cn1c(C2CCN(C(=O)NCc3ccc(F)cc3)CC2)cc(=O)n2nccc12 | 644 |
| CC(=O)Nc1ccc(NC(=O)Cn2nc(C(=O)N3CCCCC3)c3ccccc32)cc1 | 678 |
| CCOc1ccccc1C(=O)Nc1ccc2c(c1)Sc1ncccc1C(=O)N2C | 806 |
| COc1ccc(NC(=O)c2cn(-c3cc(N(C)C)ncn3)cn2)c(OC)c1 | 842 |
| O=C(NCCCN1CCN(Cc2ccccc2)CC1)c1cn2c3c(ccc(Cl)c3c1=O)OCC2 | 634 |
